Reference: patent publication US20030064960A1, “Medicine for inducing osteogenesis” (priority 1999, published 2003)

Tests used:
[1] = tested on: RC-I,II cell (cultured cell derived from rat calvaria); assay: Osteogenesis inducing activity on cultured cell derived from rat calvaria (northern blotting of ALP, COL1 and OC genes); format: cell-based
Experimental: (1) Preparation of Cultured Cell Derived from Rat Calvaria
Cultured cell derived from rat calvaria was isolated from Wister rats (obtained from sankyo-rabo) of three days old by following method.
The rats were killed, decapitated and their calvarias were picked out. The tissue was flaked by a tweezer and suspended into a solution for enzyme treatment, containing 0.04% of EDTA, collagenase (crude type 1A: SIGMA: 0.1%) and trypsin (0.05%). The sample was treated in the enzyme solution for 30 min under temperature of 37° C. Then, the enzyme solution was harvested and cells extricated into the enzyme solution was harvested by centrifugation (RC-I). The enzyme solution was added again and digested at 37° C. for 30 min. Cells extricated into the enzyme solution was designated as RC-II.
The RC-I and RC-II thus obtained were mixed and used for following experiments. The cell mixture of RC-I and RC-II was designated as RC-I,II cell in following description. […] The RC-I and RC-II described above hardly expressed alkaline phosphatase (ALP), type 1 collagen (COL1) and osteocarcin (OC) gene. The genes described above are used for marker genes of osteoblast (T. R. Arnett et al, Methods in Bone Biology, 1988, Chapman & Hall).
(3) Estimation of Osteogenesis Inducing Activity of the Lipid-bound Glycosaminoglycan
HA-PE produced as described above was dissolved in hank's solution at concentration of 5 μg/ml and 2 ml of hank's solution containing HA-PE was poured into polystyrene culture dish with diameter of 10 cm. The dish was coated by settling the dish for 16 hours at 4° C. The dish treated by hank's solution without HA-PE was used for control.
The RC-I,II cell suspension, prepared as described above, was poured on the dish at the density of 1×10^4 cells/cm^2. The cell was cultured in α-minimum eagle medium (MEM: GIBCO) solution containing 1% anti-biotics, anti-mycoplasma solution (containing 50 μg/ml ascorbic acid and 5 mM β-glycerophosphate, GIBCO) and 10% fatal bovine serum (FBS: GIBCO).
At the time just after cell reached to confluent, one week after confluent and two weeks after confluent, total RNA of the cell was extracted by guanidine-phenol-chloroform method. The expression of ALP, COL1 and OC genes was analyzed by northern blotting method. The expression of these genes are used as an indicator of osteoblast differentiation. In FIG. 1, Et-Br indicates control sample obtained by staining of ribosomal RNA by ethydium bromide. Moreover, digitalized result calculated from northern blotting of FIG. 1 by Quantity One program (TOYOBO) was shown in FIG. 2 as a value standardized against the control described above.

[2] = hyaluronic acid with a molecular weight of 20,000 to 60,000, at a concentration of 0.5 mg/ml; cited from earlier work
[3] = RC-I,II cell cultured in dish coated with 5 μg/ml HA-PE, northern blotting at confluent, one and two weeks after confluent, vs dish treated without HA-PE

| Substance | induction of osteocyte differentiation ([1]; RC-I,II cell cultured in HA-PE coated dish (5 μg/ml)) | expression of ALP gene [1, 3] | expression of COL1 gene [1, 3] | expression of OC gene [1, 3] | osteogenesis induction activity [2] |
| --- | --- | --- | --- | --- | --- |
| L-(α-phosphatidyl)ethanolamine dipalmytoyl conjugated hyaluronic acid [HA-PE] | significant induction of osteocyte differentiation | predominant increase | predominant increase | predominant increase | – |
| hyaluronic acid | – | – | – | – | osteogenesis induction activity |
